Broadly, the MIC is the lowest concentration that inhibits growth of the organism.

1 molecule from US20260138981A1, “DIHYDROFOLATE REDUCTASE INHIBITORS FOR ANTI-BIOTIC RESISTANT INFECTIONS” (THE TRUSTEES OF PRINCETON UNIVERSITY, priority 2022, published 2026) can be followed below.

≈ marks a conversion by molar mass, not a printed value.

One data set concerns P. aeruginosa PA01. In words: MIC in LB Broth. The data set is classed as cell-based. Conditions: Pseudomonas aeruginosa, 16 hours at 37° C. in LB Broth, OD600. The method, then:
(§1) The minimum inhibitory concentration is defined as the lowest concentration of antibiotic at which no visible growth was detected after 16 hours at 37° C. Overnight cultures were diluted 1:150 in LB Broth and added to a 96-well plate. Antibiotics were serially diluted 1:2 and added to columns of the 96-well plate and grown at 37° C. with continuous shaking. Cell growth was measured by optical density (OD600). MIC assays were performed in either BioTek Synergy HT (Winooski, VT) or Tecan InfiniteM200 Pro (Männedorf, CH) microplate readers.

A further data set has as its system E. cloacae ATCC BAA-1143. The data set is described as follows: MIC in LB Broth. The format is cell-based. Conditions: Enterobacter cloacae, ATCCBAA1143, 16 hours at 37° C. in LB Broth, OD600. The method, then: as §1
Another data set concerns P. aeruginosa ATTC 27853. In words: MIC in LB Broth. Conditions: Pseudomonas aeruginosa, ATTC27853, 16 hours at 37° C. in LB Broth, OD600. The format is cell-based. The method, then: as §1
Another data set relates to E. coli lptD4213. The data set is described as follows: MIC in LB Broth. The data set is classed as cell-based. Conditions: Escherichia coli, LPTD4213, 16 h. The method, then: as §1
Another data set concerns A. baumannii BAA-125. The data set is described as follows: MIC in LB Broth. The format is cell-based. Conditions: Acinetobacter baumannii, BAA125, 16 hours at 37° C. in LB Broth, OD600. The method, then: as §1
The test system of another data set is E. coli MG1655. The data set is described as follows: MIC in LB Broth. Conditions: Escherichia coli, 16 hours at 37° C. in LB Broth, OD600. The data set is classed as cell-based. The method, then: as §1
In another data set the test system is S. epidermidis EGM-206. In words: MIC in LB Broth. The format is cell-based. The settings on record: Staphylococcus epidermidis, EGM206, 16 hours at 37° C. in LB Broth, OD600. The method, then: as §1
Another data set has as its system S. aureus USA300. In words: MIC in LB Broth. The data set is classed as cell-based. The settings on record: Staphylococcus aureus, 16 hours at 37° C. in LB Broth, OD600. The method, then: as §1
A further data set relates to P. aeruginosa PA14. The data set is described as follows: MIC in LB Broth. The format is cell-based. The settings on record: Pseudomonas aeruginosa. The method, then: as §1
In a further data set the test system is E. coli NCM-3722. The data set is described as follows: MIC in LB Broth. The format is cell-based. The settings on record: Escherichia coli, NCM3722, 16 hours at 37° C. in LB Broth, OD600. The method, then: as §1
In data set [1] the test system is K. pneumoniae ATCC 438165. The data set is described as follows: MIC in LB Broth. Conditions: Klebsiella pneumoniae, ATCC438165, 16 hours at 37° C. in LB Broth, OD600. The data set is classed as cell-based. How it is done: as §1
Data set [2] concerns folate metabolism in P. aeruginosa. The data set is described as follows: Metabolomics (LC-MS metabolite abundance). Conditions: PA14, 2×MIC for 15 min, vs solvent control; P=0.0186 and 0.0196. The data set is classed as cell-based. The method, then:
Metabolite abundance was quantified in comparison to the solvent only control. Data represents mean±SD for 3 biological replicates. P values were calculated using unpaired t-test using Prism 9 (P values≤0.05)
To test the ability of fluorofolin to inhibit P. aeruginosa DHFR in vivo, metabolomics were performed. As a positive control for DHFR inhibition, we turned to TMP.
Overnight P. aeruginosa PA14 cultures were diluted 1:150 in Gutnick Minimal Media and grown to early-mid exponential phase (OD600=0.4-0.6).
LC-MS analysis of metabolites was performed on Orbitrap Exploris 240 mass spectrometer coupled with hydrophilic interaction liquid chromatography (HILIC)^64. […] Flow rate was 0.15 mL/min, and column temperature was set at 25° C. […] The orbitrap resolution was 180,000 at m/z of 200. The maximum injection time was 200 ms, and the automatic gain control (AGC) target was 1000%. Raw mass spectrometry data were converted to mzXML format by MSConvert (ProteoWizard). Pick-peaking was done on El Maven (v0.8.0, Elucidata).

For a further data set, the system named is E. coli ATCC BAA-198. The data set is described as follows: MIC, WuXi, Mueller-Hinton Broth. The format is cell-based. Conditions: Escherichia coli, ATCCBAA198, performed by WuXi in Mueller-Hinton Broth. The method, then: (§2) For MICs calculations performed by WuXi (Shanghai, China), MIC was calculated as the lowest concentration that inhibits visible growth after 18 hours. 4-8 bacterial colonies of strains of interest were vortexed in saline and adjusted to an OD600 of 0.2. Strains were diluted 1:200 into CAMHB media into 96-well plates. Antibiotics were serially diluted 1:3 in DMSO, and 1 μL of each dilution was added to bacteria. The plates were incubated for 18-20 hours at 37° C. before observation.

The subject of a further data set is A. baumannii ATCC 17978. The data set is described as follows: MIC, WuXi, Mueller-Hinton Broth. Conditions: Acinetobacter baumannii, ATCC17978, performed by WuXi in Mueller-Hinton Broth. The format is cell-based. How it is done: as §2
The subject of data set [3] is S. typhimurium CMCC 50115. In words: MIC, WuXi, Mueller-Hinton Broth. The data set is classed as cell-based. The settings on record: Salmonella enterica, performed by WuXi in Mueller-Hinton Broth. How it is done: as §2
In another data set the test system is E. faecalis ATCC 51575. The data set is described as follows: MIC, WuXi, Mueller-Hinton Broth. The data set is classed as cell-based. Conditions: Enterococcus faecalis, ATCC51575, performed by WuXi in Mueller-Hinton Broth. The method, then:
as §2

A further data set relates to S. aureus NRS384. In words: MIC, WuXi, Mueller-Hinton Broth. The format is cell-based. The settings on record: Staphylococcus aureus, performed by WuXi in Mueller-Hinton Broth. How it is done:
as §2

The nature of data set [4]: Maximum tolerated dose (MTD). The format is in vivo, mouse. Conditions: administered subcutaneously (SC), CD-1 mice. How it is done: P. aeruginosa thigh infection model and MTD studies: Care and handling of Female 5-6-week-old CD-1 conformed to institutional animal care and use policies as carried out at University of North Texas Health Science Center (Fort Worth, Texas). Rodents were fed either base chow or base diet supplemented with 1.8 g/kg thymidine (Sigma T9250) obtained from Envigo starting two days before infection.
MTD was determined through administration of compounds at increasing dosage until the maximum dose before adverse reactions were observed. Doses were increased in a stepwise manner from 1 mg/kg to 5, 10, 25, 50 mg/kg. […] MTD was evaluated by the University of North Texas Health Science Center (Fort Worth, Texas).

On to `Nc1nc(N)c2c(ccc3c2ccn3Cc2ccnc(F)c2)n1` [fluorofolin], for which the MIC in the data set on P. aeruginosa PA01 is 6.25 µg/mL; in the data set with E. cloacae ATCC BAA-1143 it was 12.5 µg/mL; in the data set on P. aeruginosa ATTC 27853, 25 µg/mL; in the data set with E. coli lptD4213, 0.02 µg/mL; with A. baumannii BAA-125, 31.2 µg/mL; in the data set with E. coli MG1655 it was 0.625 µg/mL. The MIC in the data set with S. epidermidis EGM-206 came out at 0.312 µg/mL; with S. aureus USA300 it was 0.4 µg/mL; in the data set on P. aeruginosa PA14 (P. aeruginosa PA14, compound alone), 3.1 µg/mL; in the data set with P. aeruginosa PA14 (P. aeruginosa PA14, 16 hours at 37° C. in LB Broth, OD600) it was 3.12 µg/mL; in the data set with E. coli NCM-3722, 0.312 µg/mL; in data set [1] it was 6.25 µg/mL. The MIC with E. coli ATCC BAA-198 was found to be 7.11 µg/mL (≈ 23.1 µM); with A. baumannii ATCC 17978, 0.8 µg/mL (≈ 2.59 µM); in data set [3], 0.03 µg/mL (≈ 0.0973 µM); in the data set with E. faecalis ATCC 51575 it was 0.01 µg/mL (≈ 0.0324 µM); with S. aureus NRS384 it was 0.03 µg/mL (≈ 0.0973 µM). Also, the “abundance of AICAR and dUMP” value in data set [2] is given as “significant upregulation”. For the same molecule, in data set [4], the maximum tolerated dose turned out to be 25 mg/kg.
